Laboratory results: PubChem BioAssay (NCI)
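Interpolation was linear, between the two tested concentrations surrounding the appropriate level; five concentrations were tested over 48 hours in 96-well plates. TGI: concentration producing complete growth inhibition.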

What was measured:
Experiment in all cases: DTP human tumour cell line panel, 48 h
OVCAR-5 ovarian = test system: OVCAR-5 ovarian
OVCAR-8 ovarian = test system: OVCAR-8 ovarian
UACC-62 melanoma = test system: UACC-62 melanoma
OVCAR-4 ovarian = test system: OVCAR-4 ovarian
NCI/ADR-RES ovarian = test system: NCI/ADR-RES ovarian
KM12 colon = test system: KM12 colon
NCI-H226 lung = test system: NCI-H226 lung
BT-549 breast = test system: BT-549 breast
MCF7 breast = test system: MCF7 breast

| Structure (SMILES) | TGI (OVCAR-5 ovarian) [µM] | TGI (OVCAR-8 ovarian) [µM] | TGI (UACC-62 melanoma) [µM] | TGI (OVCAR-4 ovarian) [µM] | TGI (NCI/ADR-RES ovarian) [µM] | TGI (KM12 colon) [µM] | TGI (NCI-H226 lung) [µM] | TGI (BT-549 breast) [µM] | TGI (MCF7 breast) [µM] |
| --- | --- | --- | --- | --- | --- | --- | --- | --- | --- |
| O=C1c2cc([N+](=O)[O-])sc2C(=O)c2ccsc21 | 3.22 | 2.01 | 0.433 | 0.947 | 2.78 | 1.77 | 3.09 | 1.27 | 0.69 |
| O=C(Oc1cccc(Cl)c1)c1cc2cc(CCl)ccc2oc1=O | > 100 | > 100 | 28.2 | > 100 | > 100 | > 100 | > 100 | > 100 | 99.6 |
| CC(C)c1cccc(C(C)C)c1OS(=O)(=O)NC(=O)OC(C(F)(F)F)C(F)(F)F | > 100 | > 100 | – | > 100 | > 100 | > 100 | > 100 | > 100 | > 100 |
| CN(C)CCNc1nc2c(no[n+]2[O-])c2ccccc12 | > 100 | 32.8 | 41.4 | 61.1 | 58.7 | 58.9 | 54.9 | – | > 100 |
| O=C1N[C@@H](COc2ccc(C=Nc3ccc(CCc4ccc(N=Cc5ccc(OC[C@@H]6COC(=O)N6)cc5)cc4)cc3)cc2)CO1 | > 100 | > 100 | > 100 | > 100 | > 100 | > 100 | > 100 | – | – |
| CC(=O)N(CN1C(=O)CCC1C(=O)O)c1ccccc1Cl (stereo unspecified) | > 100 | > 100 | > 100 | > 100 | > 100 | > 100 | > 100 | – | > 100 |
| OCC(O)C(O)C(O)C(O)/C=N/Nc1nc(O)c(/C=C2\C=Nc3ccccc32)[nH]1 (stereo unspecified) | > 100 | > 100 | > 100 | > 100 | > 100 | > 100 | > 100 | > 100 | > 100 |
| O=S(=O)(/N=C(\NO)Nc1ccc(Cl)cc1)c1ccc(-c2ccccn2)s1 | > 100 | > 100 | > 100 | > 100 | > 100 | > 100 | > 100 | > 100 | – |
| CC1(C)CC[C@]2(C(=O)O)[C@H](O)C[C@]3(C)C(=CC[C@@H]4[C@@]5(C)CC[C@H](OC6OC(C(=O)O)C(O)C(O)C6O)C(C)(C)[C@@H]5CC[C@]43C)[C@@H]2C1 (stereo partly specified) | > 100 | > 100 | 61.9 | 58.4 | > 100 | > 100 | > 100 | 34.2 | > 100 |
| OC(CN1CCCCC1)c1ccc(/C=C/c2ccc(Cl)cc2)cc1 (stereo unspecified) | > 100 | > 100 | 44.9 | > 100 | > 100 | 40.3 | > 100 | > 100 | > 100 |
| COP(C)(=O)C(Cc1c[nH]c2ccccc12)NC(=O)OCc1ccccc1 (stereo unspecified) | > 100 | > 100 | > 100 | > 100 | > 100 | > 100 | > 100 | > 100 | > 100 |
| CSC1=C(C(=O)Nc2ccccc2)C(N)=NC1=O | – | > 100 | > 100 | > 100 | > 100 | > 100 | > 100 | > 100 | > 100 |
